Measurements reported in US20210085699A1, “COMBINATION THERAPIES FOR TREATING CANCERS” (priority 2018, published 2021).

How the values were obtained:
thymic lymphomas = experiment: 2DG I.P. in Trp53−/− mouse model of thymic lymphoma; assay type: in vivo
Method: Next, a more homogeneous and acute spontaneously arising lymphoma was tested. In addition, the extent to which 2DG could affect a purely T-cell lymphoma was tested. To meet all of these criteria, a classic mouse model of T-cell cancer, the p53-deficient mouse (31) was used. […] To test the effect of 2DG on these thymic lymphomas, […].

MEC1 cells [1] = experiment: Ex vivo growth/survival of MEC1 cells; assay type: cell-based, human
MEC1 cells [2] = experiment: MEC1 xenograft in NRG mice, tumor burden by human CD19+ cells (flow cytometry); assay type: in vivo
Method: (§1) To test that hypothesis, the two cell lines were tested for 2DG sensitivity in vivo: immunodeficient NOD.Cg-Rag1^tm1MomIl2rg^tm1Wjl/SzJ (NRG™) mice were xenografted with either MEC1 or CCRF-SB cells, and the mice were then treated with 200 μL of 600 mM 2DG or glucose I.P. three times per week for two weeks. Both MEC1 and CCRF-SB cells migrate to the spleen and bone marrow, and since these mice […] CD19+ B-cells, the tumor burden can be measured terminally in these organs by anti-human CD19 staining via flow cytometry after euthanasia at the end of the treatment period.
Because DIDS was effective in reducing numbers of MEC1 B-cells ex vivo, its effectiveness was tested in vivo. […] MEC1 cells were xenografted into immunodeficient NRG™ mice for two weeks, and mice were then treated either with DIDS at 50 mg/kg or with a 0.1 M potassium bicarbonate/PBS vehicle, once per week for an additional two weeks. NRG™ mice were used because they were deficient in CD19 cells, allowing quantification of MEC1 B-cells by staining spleen cells for human CD19, as the spleen is a homing organ for MEC1 B-cells, all of which are positive for CD19.
Mice were treated I.P. three times weekly for two weeks. 1) mice were dosed I.P. with 10 mg/kg DIDS, a fifth of the dose required to elicit an effect in vivo (FIG. 4D); 2) mice were treated I.P. with 220 mg/kg of 2DG or glucose; a third of the dose of 2DG required for an effect (FIG. 3C); 3) mice were treated with both DIDS and 2DG, at the same doses used in the first two groups; 4) as a positive control, mice were treated with fludarabine, a compound frequently used to treat CLL, at 35 mg/kg, a dose commonly used to elicit an effect; and 5) as a negative control, mice were treated with vehicle consisting of glucose in PBS (41). Following the 2-week treatment period, bone marrow and spleens were assessed for tumor burden, by determining the percentages of human CD19-positive cells via flow cytometry (FIG. 5C).
(§2) Human cancer cell lines were xenografted into NRG mice in the following way: Cells grown in flasks were given fresh media the night before xenograftment and seeded at 10^6 cells per mL. The next day, the cells were washed twice with DPBS without calcium or magnesium and resuspended to 1-2×10^8 cells per mL of DPBS at room temperature and immediately injected via tail vein at 100 μL per mouse. The cells were given 7-10 days to fully xenograft, after which tumor load in the blood was assessed via flow cytometry (FACSCaliber II) for human CD19+ cells (Antibody cat no. 555413, BD Parmingen). Mice with similar tumor loads were assigned to different treatment groups to decrease bias and ensure more even tumor load across treatments. Mice were treated as described in the Results section for two weeks unless otherwise indicated. Upon euthanasia, the spleen and the bone marrow were harvested and stained for human CD19, and the cells were measured by flow cytometry on the FACSCaliber II. Analysis of the flow data was done by Flowjo version 8.8.7 (BD Pharmingen).
Xenografts were done as follows: NOD. Rag1−/− IL-2rg−/− (NRG) mice obtained from the Jackson Laboratory were xenografted for one to two weeks with Non Hogdkin's Leukemia CCRFSB, Chronic lymphocytic leukemia MEC1 cells or MEC1 cells carrying the luciferase gene (MEC1_LUC). Mice were then randomly assigned to treatment or vehicle cohort, and treated for two weeks.

[3] = tested on: spontaneously arising lymphomas; experiment: 2DG in drinking water, spontaneous lymphomas of SJL.CD8a−/− mice; assay type: in vivo, mouse
From the text: To test the extent to which inhibition of glycolysis by 2DG alleviated these spontaneously arising lymphomas, a cohort of SJL.CD8a−/− female mice were aged to […] of age and were monitored for signs of lymphoma development. Visible growth was most evident in cervical lymph nodes and in some cases in spleens (indicated by arrows, FIG. 1A). Once tumors were sufficiently large to palpate, mice were placed on water with 6 g/L of dissolved 2DG provided ad libitum and monitored weekly for tumor reduction. […] Photographs of the tumors were taken weekly to document disease regression, and the time points, in weeks, at which the tumors visibly shrank or, later, reemerged, were recorded.
Female SJL.CD8a−/− mice were obtained from the Jackson Laboratory. Mice were aged and checked weekly for splenic or lymphatic tumors. […] Tumors were monitored and photographed weekly for signs of disease regression or progression.
SJL.CD8a−/− female mice were aged and monitored for signs of tumor development weekly after reaching 6 months of age. Tumors were found on mice in between 7 to 12 months of age. Once tumors had reached a clearly visible size, the mice were given water with 6 g/L of dissolved 2DG provided ad libitum. This concentration of 2DG in the water supplied the mice with a daily dose of approximately 960 mg/kg of 2DG. Mice were monitored weekly to determine changes in tumor mass. Photographs of the tumors were taken weekly to gauge whether the tumor was shrinking, expanding, or maintaining their size and to provide an estimate of the overall health of the mice. Treatments lasted for 11 weeks or until the tumors returned and mice became too sick to continue in the study. The treatment of one mouse was carried out to week 16 to determine what, if any, side effects would occur with prolonged 2DG exposure. […] Dates on which tumor shrinkage was observed, as well as dates on which tumor reemergence was observed, were recorded.

TM00244 = experiment: PDX lung carcinoma TM00244 xenografted in NSG mice, 2DG vs glucose; assay type: in vivo, human; details: 200 μL of 600 mM 2DG I.P. three times weekly, 4 weeks, glycolysis-independent PDX
From the text: (§3) The effects of 2DG in human lung carcinoma PDX (patient-derived xenograft) models were eventuated. While it is understood that 2DG primarily affects glycolysis, studies have shown that 2DG can interfere with other systems, such as the cell cycle, independently of its effects on metabolism (8, 32, 33). Changes in the cell cycle would affect the proliferation of cancer cells, and would ultimately influence tumor growth. To test whether 2DG affects glycolysis independently of proliferation, two PDX human lung carcinomas (TM00244 and TM00921) with similar growth kinetics (FIG. 2A) but differing in the use of glycolytic pathways (Table 1) were tested.
(§4) Tumors from these two carcinomas were xenografted into immunodeficient NOD.Scid.IL2R gamma null (NSG™) mice, and, after tumors of a measurable size (>50 mm^3) were observed, mice of each model were treated with 200 μL of either 600 mM 2DG or glucose three times weekly via I.P. injection.
(§5) Patient-derived xenograft (PDX) tumors were obtained from the JAX PDX Resource. Tumor fragments were minced separately and xenografted subcutaneously in an NSG mouse to establish P1. Upon growth of the tumor fragment, the tumor was harvested, minced, and xenografted in multiple mice to establish P2 mice. All experiments were conducted on P2 or higher mice that arose from engraftment from one of multiple tumor fragments.

TM00921 = experiment: PDX lung carcinoma TM00921 xenografted in NSG mice, 2DG vs glucose; assay type: in vivo, human; details: 200 μL of 600 mM 2DG I.P. three times weekly, 4 weeks, glycolysis-dependent PDX
From the text: as §3, §4, §5

CCRF-SB cells = experiment: CCRF-SB xenograft in NRG mice, tumor burden by human CD19+ cells; assay type: in vivo; details: 200 μL of 600 mM 2DG I.P. three times per week for two weeks, vs glucose
Method: as §1
as §2, with “Mice with similar tumor loads were assigned to different treatment groups to decrease bias and ensure more even tumor load across treatments. Mice were treated as described in the Results section for two weeks unless otherwise indicated.” left out, “Analysis of the flow data was done by Flowjo version 8.8.7 (BD Pharmingen).” left out

[4] = tested on: AID-positive neoplastic cell lines; details: tissue culture; reference (17); cited from earlier work
[5] = tested on: human CLL cells from patients; details: patient cells ex vivo; reference (17); cited from earlier work
[6] = tested on: splenocytes, live white blood cells (CD45+ Ter119-PI−); experiment: In vivo DIDS treatment of AID-null mice followed by ex vivo ionizing radiation of splenocytes; set-up: species or system mouse
Method: Whether DIDS could block repair of AID-independent double-strand breaks (frank or single-strand staggered double-strand breaks) in vivo was determined. A common way to generate double-strand breaks is via ionizing radiation (1, 38, 39). For this, AID-null mice were treated with different concentrations of DIDS (0, 5, or 10 mg/kg) for eight hours, and then harvested splenocytes and treated them with different doses of IR (0, 1, 5, 10 Gy). Eighteen hours after IR, the numbers of live white blood cells (CD45+ Ter119-PI−) were measured by flow cytometry.

[7] = tested on: AID knock-out MEC1 (AKO) cells; experiment: Ex vivo growth of AID knock-out MEC1 (AKO) cells; assay type: cell-based, human; details: DIDS vs vehicle
Method: (§6) Theoretically, this would result in a truncated, non-functional AID, which was termed AID knock-out MEC1 (AKO) cells. To test the dependence of DIDS on AID, AKO cells were treated with DIDS and compared their growth with that of parental MEC1 cells. […] To test whether AID sufficiency was required for DIDS efficacy in vivo, AKO and parental cells were xenografted in NRG™ mice, and mice were treated with 50 mg/kg of DIDS for two weeks. […] Thus, the therapeutic effect of DIDS in MEC1 xenografts depended on AID.
AID knock out (AKO) MEC1 cell lines were developed by targeting Exon 2 of AID with the following guide RNAs: CTTGATGAACCGGAGGAAG (SEQ ID NO: 1), GTCCGCTGGGCTAAGGGTC (SEQ ID NO: 2), GTGCTACATCCTTTTCAC (SEQ ID NO: 3). These guides were cloned into the Cas9-EGFP vector, pX330 (Addgene, Cat. no. 66582). These vectors were nucleofected into MEC1 cells using Amaxa Cell Line Nucleofector Kit V using program X-001, and according to manufacturer's instructions (Lonza, Cat. no. VACA-1003). Nucleofected cells were sorted for GFP positivity and cloned by limited dilution to generate AKO cell lines. Two independent AKO cell lines (14-1 and 14-3) were confirmed for AID nullizygosity using both genomic and transcript PCRs.

[8] = tested on: AID knock-out MEC1 (AKO) cells; experiment: AKO cell xenograft in NRG mice treated with DIDS; assay type: in vivo, human; details: DIDS 50 mg/kg for two weeks
Method: as §6
as §2, with “Mice with similar tumor loads were assigned to different treatment groups to decrease bias and ensure more even tumor load across treatments. Mice were treated as described in the Results section for two weeks unless otherwise indicated.” left out, “Analysis of the flow data was done by Flowjo version 8.8.7 (BD Pharmingen).” left out

[9] = 200 μL of 600 mM 2DG I.P. three times per week for two weeks, vs glucose
[10] = one mouse, 2DG 6 g/L in water carried out to week 16

Compound: OCC1O[C@H](O)C[C@@H](O)[C@@H]1O (mixture of isomers) [2DG, 2-deoxy-D-glucose]
- duration of inactivity upon injection (thymic lymphomas; 2DG 670 mg/kg I.P.): 10 to 60 min
- protection from developing neoplasms (survival curve) (thymic lymphomas; 2DG 670 mg/kg I.P. three times weekly from 14 weeks of age for 10 weeks, vs glucose): significantly protected from developing neoplasms
- weight gain (thymic lymphomas; 2DG 670 mg/kg I.P. three times weekly, vs glucose-treated mice): lower weight gain compared to glucose-treated mice, although the difference did not achieve significance
- effect on MEC1 cell numbers (MEC1 cells [1]; 2DG 0.2 mM alone, 48 hours): does not have an effect on its own
- tumor burden (% hCD19+) in bone marrow (MEC1 cells [2]; 2DG alone 220 mg/kg I.P. three times weekly for two weeks): elicited as much effect as the combination treatment
- tumor burden (human CD19+ cells) in bone marrow (MEC1 cells [2]; [9]): significant reductions in numbers
- tumor burden (human CD19+ cells) in spleen, sensitivity to 2DG (MEC1 cells [2]; [9]): those in the spleen did not
- adverse side effects by gross observation (weight loss, lethargy, lack of grooming) ([3]; 2DG 6 g/L in drinking water, at any time during treatment): no adverse side effects of this treatment were observed
- time within which tumors returned ([3]; 2DG 6 g/L in drinking water, despite continuation of treatment): 5-11 weeks
- mice of the six responders in which tumors returned ([3]; 2DG 6 g/L in drinking water, treatment continued): four
- treatment time at which tumor regression was evident ([3]; 2DG 6 g/L in drinking water, N=7): two to three
- appearance of greatly enlarged spleen (representative mouse) ([3]; FIG. 1A legend, 2DG 6 g/L in drinking water): returned to normal appearance after two weeks of treatment
- fraction of mice with tumor resurgence ([3]; FIG. 1B legend, after 5-11 weeks of 2DG treatment, N=7): approximately ¾
- adverse effects with prolonged 2DG exposure [3, 10]: no adverse effects were noted
- tumor return under prolonged treatment [3, 10]: This tumor never returned
- tumor size (TM00244): no difference in tumor size
- tumor volume (TM00921): significantly smaller tumor volume
- tumor burden (human CD19+ cells) in spleens or bone marrow (CCRF-SB cells): no significant response to 2DG

Compound: O=S(=O)(O)c1cc(N=C=S)ccc1/C=C/c1ccc(N=C=S)cc1S(=O)(=O)O [DIDS, 4,4′-Diisothiocyano-2,2′-stilbenedisulfonic acid]
- targeting of AID-positive neoplastic cell lines [4]: could specifically target AID-positive neoplastic cell lines in tissue culture
- targeting of AID-positive vs AID-negative human CLL cells [5]: targeted AID-positive, but not AID-negative, human CLL cells
- cytotoxic effect on MEC1 B-cells (MEC1 cells [1]; DIDS 0.05 mM, 5 days, 2×10^5 cells): Cytotoxic effects of DIDS on MEC1 B-cells were seen as early as 5 days
- cytotoxic effect on MEC1 B-cells (MEC1 cells [1]; DIDS 0.1 and 0.2 mM, after 5 days): significant effect was observed
- cell numbers (MEC1 cells [1]; DIDS alone, titrated, day 2): reduction of cell numbers as the concentration of DIDS was increased
- mice showing significant (p=0.001) reduction in number of MEC1 cells in the spleen (MEC1 cells [2]; DIDS 50 mg/kg once per week for two weeks, vs vehicle): 10/11
- tumor burden in vivo (luciferase imaging, flow cytometry of bone marrow and spleen) (MEC1 cells [2]; FIG. 10 legend, MEC1 or MEC1 LUC, DIDS 50 mg/kg for two weeks): a high dose of DIDS is required to reduce tumor burden in vivo
- survival of cells after IR ([6]; DIDS 0, 5 or 10 mg/kg for eight hours in AID-null mice, IR 0, 1, 5, 10 Gy ex vivo, eighteen hours after IR): in the presence of DIDS, the effect is significantly greater
- cell ablation at 10 Gy, normalized to 0 mg/Kg DIDS ([6]; IR 10 Gy, DIDS 5 or 10 mg/kg): even a tenth of the dose of DIDS can synergistically enhance the severity of cell ablation
- growth rate of AKO cells [7]: grew at a similar rate regardless of whether the cells were treated with vehicle or DIDS
- spleen weights, AKO vs parental MEC1 [8]: AKO cells were more resistant to DIDS
- tumor burden by percentages of human CD19 cells, AKO vs parental MEC1 [8]: AKO cells were more resistant to DIDS
